Target: KRAS (aa 1-169) G12C, C51S, C80L, C118S (Homo sapiens (Human), UniProt P01116, C118S/C51S/C80L/G12C)
Assay: Biochemical functional assay: SOS1-mediated nucleotide exchange of GDP-loaded KRAS G12C, binding to GST-cRaf RBD, FRET readout
Settings: 3 hrs pre-incubation with compound at 24° C., SOS1, GTPyS, inhibition of nucleotide exchange
Method in brief: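 GDP-loaded His-tagged KRAS construct preincubated with compound 3 h at 24° C in 25 mM HEPES pH7.5, 10 mM MgCl2, 0.01% Triton X-100; SOS1 (aa 564-1049), GTPγS and GST-cRaf RBD added for 3 h, then anti-His Tb cryptate/anti-GST XL665 for 3 h. HTRF 665/620 ratio; IC50 by four-parameter logistic fit.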

KRAS (aa 1-169) G12C, C51S, C80L, C118S, sequence (P01116 other isoform, or with tags, fused parts or gaps G12C/C51S/C80L/C118S): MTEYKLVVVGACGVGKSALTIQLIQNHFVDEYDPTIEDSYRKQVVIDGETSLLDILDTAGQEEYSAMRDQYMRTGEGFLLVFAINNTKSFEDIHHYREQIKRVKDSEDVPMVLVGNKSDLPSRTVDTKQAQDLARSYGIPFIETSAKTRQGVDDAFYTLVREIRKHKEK

Row | Compound | IC50
1 | C=C(F)C(=O)N1CCN(c2nc(OC[C@@H]3CCCN3C)nc3cc(-c4c(Cl)c(C)cc5[nH]ncc45)c4c(c23)OCCC4)C[C@@H]1CC#N [Compound B11, 2-((2S)-4-(5-(5-chloro-6-methyl-1H-indazol-4-yl)-8-(((S)-1-methylpyrrolidin-2-yl)methoxy)-3,4-dihydro-2H-pyrano[2,3-f]quinazolin-10-yl)-1-(2-fluoroacryloyl)piperazin-2-yl)acetonitrile] | 7.81 nM
2 | C=CC(=O)N1CCN(c2nc(OC[C@@H]3CCCN3C)nc3cc(-c4ccccc4F)c4ccoc4c23)CC1 [Compound B45, (S)-1-(4-(4-(2-fluorophenyl)-7-((1-methylpyrrolidin-2-yl)methoxy)furo[2,3-f]quinazolin-9-yl)piperazin-1-yl)prop-2-en-1-one] | 2020 nM
3 | C=C(F)C(=O)N1CCN(c2nc(OC[C@@H]3CCCN3C)nc3cc(-c4cccc5c4CCC5)c4c(c23)OCCC4)C[C@@H]1CC#N [Compound B78, 2-((S)-4-(5-(2,3-dihydro-1H-inden-4-yl)-8-(((S)-1-methylpyrrolidin-2-yl)methoxy)-3,4-dihydro-2H-pyrano[2,3-f]quinazolin-10-yl)-1-(2-fluoroacryloyl)piperazin-2-yl)acetonitrile] | 12 nM
4 | C=C(F)C(=O)N1CCN(c2nc(N3CC(CF)(N(C)C)C3)nc3cc(-c4cccc5cccc(Cl)c45)c4c(c23)OCCC4)C[C@@H]1CC#N [Compound B88, (S)-2-(4-(5-(8-chloronaphthalen-1-yl)-8-(3-(dimethylamino)-3-(fluoromethyl)azetidin-1-yl)-3,4-dihydro-2H-pyrano[2,3-f]quinazolin-10-yl)-1-(2-fluoroacryloyl)piperazin-2-yl)acetonitrile] | 92 nM
5 | C=C(F)C(=O)N1CCN(c2nc(OC[C@@H]3CCCN3C)nc3cc(-c4c(Cl)c(C)cc5[nH]ncc45)c4c(c23)OCCC4)C[C@@H]1CC#N (single isomer, unassigned; atropisomer1) [Compound B12] | 4.6 nM
6 | C=C(F)C(=O)N1CCN(c2nc(N3CC(N(C)C)C3)nc3cc(-c4cccc5cccc(Cl)c45)c4c(c23)OCCC4)C[C@@H]1CC#N [Compound B100, (S)-2-(4-(5-(8-chloronaphthalen-1-yl)-8-(3-(dimethylamino)azetidin-1-yl)-3,4-dihydro-2H-pyrano[2,3-f]quinazolin-10-yl)-1-(2-fluoroacryloyl)piperazin-2-yl)acetonitrile] | 18 nM
7 | C=CC(=O)N1CCN(c2nc(OC[C@@H]3CCCN3C)nc3cc(-c4cccc5cccc(Cl)c45)c4c(c23)OCCC4)[C@@H](C)C1 [Compound B63, 1-((S)-4-(5-(8-chloronaphthalen-1-yl)-8-(((S)-1-methylpyrrolidin-2-yl)methoxy)-3,4-dihydro-2H-pyrano[2,3-f]quinazolin-10-yl)-3-methylpiperazin-1-yl)prop-2-en-1-one] | 148 nM
8 | C=C(F)C(=O)N1CCN(c2nc(OC[C@@H]3CCCN3C)nc3cc(-c4ccc(C)cc4C(F)(F)F)c4ccoc4c23)C[C@@H]1CC#N [Compound B77, 2-((S)-1-(2-fluoroacryloyl)-4-(4-(4-methyl-2-(trifluoromethyl)phenyl)-7-(((S)-1-methylpyrrolidin-2-yl)methoxy)furo[2,3-f]quinazolin-9-yl)piperazin-2-yl)acetonitrile] | 535 nM
9 | C=C(F)C(=O)N1CCN(c2nc(O[C@@H]3CN(C)C[C@H]3OC)nc3cc(-c4cccc5cccc(Cl)c45)c4c(c23)OCCC4)C[C@@H]1CC#N [Compound B55, 2-((S)-4-(5-(8-chloronaphthalen-1-yl)-8-(((3R,4R)-4-methoxy-1-methylpyrrolidin-3-yl)oxy)-3,4-dihydro-2H-pyrano[2,3-f]quinazolin-10-yl)-1-(2-fluoroacryloyl)piperazin-2-yl)acetonitrile] | 134 nM
10 | C=CC(=O)N1CCN(c2ncnc3cc(-c4c(Cl)ccc5[nH]ncc45)c4c(c23)OCCC4)C[C@@H]1CC#N (single isomer, unassigned) [Compound A15] | 92.6 nM

Source: patent US20240166660A1, “KRAS G12C INHIBITORS” (BeiGene Switzerland GmbH, priority 2021, published 2024)
